Tests used:
[1] = tested on: gastric cancer KATO III cells; test: Cell viability (Cell-Titer GLO), 4 days, gastric cancer cells; assay type: cell-based, human
Experimental: Experiments were independently performed three times.
(§1) For cell viability, cells were seeded in 96-well plates at 1500-2500 cells per well (optimum density for growth, depending on the specific cell line) in a total volume of 100 μl media. Serially diluted compounds in 100 μl of media were added to the cells 12 hours later. After 4 days of incubation, Cell-Titer GLO reagents (Promega) were added and luminescence was measured on GLOMAX microplate luminometer (Promega), according to the manufacturer's instructions. All experimental points were set up as sextuplicate as biological replication and the entire experiments were repeated three times. The data are presented as percentage of viable cells with vehicle treated cells set as 100.

[2] = tested on: endogenous AR expression in RWPE1 and PZ-HPV7 cells; test: Immunoblotting of AR expression in non-malignant prostate epithelial cells; assay type: cell-based, human
Experimental: Immunoblotting analysis of RORγ and AR expression in non-malignant, human prostate epithelial RWPE1 and PZ-HPV7 cells within indicated treatments is shown.
Total RNA was isolated from cells in 6-well or 10-cm plates or from xenograft tumors, and the cDNA was prepared, amplified and measured in the presence of SYBR as described in Yang, P., et al., Molecular and cellular biology 32, 3121-3131 (2012). Briefly, the fluorescent values were collected and a melting curve analysis was performed. Fold difference was calculated as described previously Yang, P., et al. (see, id). The experiments were performed at least three times with data presented as mean values±s.d. Cell lysates were analyzed by immunoblotting with antibodies specifically recognizing RORγ, AR, AR-V7 and the indicated proteins.

[3] = target: T1, RORγ (Homo sapiens, UniProt P51449); test: RORγ transcriptional activity, reporter gene assay in 293T cells with Gal4-RORγ LBD expression vectors; assay type: cell-based; conditions: read-out: EC50, inhibition of RORγ constitutive activity
T1 construct: reporter gene assay in 293T cells with Gal4-RORγ LBD expression vectors; expressed in transfected cells; host or cells: 293T cells
T1 sequence (P51449 269-508 limits assumed): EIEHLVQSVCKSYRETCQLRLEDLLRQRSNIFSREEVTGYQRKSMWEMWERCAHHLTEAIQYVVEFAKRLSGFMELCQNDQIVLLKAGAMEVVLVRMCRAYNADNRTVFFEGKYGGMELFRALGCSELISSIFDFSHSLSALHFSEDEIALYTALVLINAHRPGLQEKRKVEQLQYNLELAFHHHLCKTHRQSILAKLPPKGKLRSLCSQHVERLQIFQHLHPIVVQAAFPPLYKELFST
Experimental: The 2-([1,1′-biphenyl]-4-yl)-1,1,1,3,3,3-hexafluoropropan-2-ol group of SR2211 was kept, while the amide group of the GSK agonist was chosen as linker. FIG. 2B illustrates RORγ transcriptional activity measured by reporter gene assay in 293T cells with Gal4-RORγ LBD expression vectors. EC50 values are reported as means±s.d. for ≥8 separate titrations from 10 μM. In vitro binding to the ligand binding domain (LBD) was measured by AlphaScreen and by thermal shift assay (TSA).
For example, the phenyl group in the middle likely forms a π-π interaction with the side chain of Phe378 of the LBD, while the amide group can form a direct hydrogen bond with Phe377. The nitro group and hydroxyl group at the two ends may form hydrogen bonds with Glu379 and His479, respectively.

[4] = tested on: prostate cancer C4-2B cells; test: Cell viability (Cell-Titer GLO), 4 days, prostate cancer cells; assay type: cell-based, human
Experimental: The “No.” label for each compound corresponds to the “Structure No.” in Table 2 (e.g., “No. 36”=“Structure No. 36” in Table 2). Experiments were independently performed three times.
as §1, with “100. The estimated in vitro IC50 values were calculated using GraphPad Prism 6 software.” for “100.”

[5] = tested on: SUM159 orthotopic xenograft tumors; test: TNBC SUM159 orthotopic xenograft tumor growth in SCID mice; assay type: in vivo, mouse; conditions: 5 mg/kg, i.p., 5 times per week, 45 days
Experimental: Orthotopic xenograft tumor models and chemical compound treatments: Four-week-old female SCID C.B17 mice (for TNBC SUM159 cell lines) were purchased from Harlan Inc. For establishing tumors, 2×10^6 cells were suspended in total of 100 μL PBS/Matrigel (1:1) and implanted orthotopically into the 4th inguinal mammary fat pads at both sides. Animal group size of six or more was estimated to have a high statistical power, based on power calculation (www.biomath.info/pgwer/) and 20 previous studies involving the same xenograft models. When the tumor volume was approximately 50 mm^3, the mice were randomized and then treated intraperitoneally (i.p.) with 100 μl of vehicle or RORγ inhibitors F18/No. 37, 5 mg/kg; GSK805, 5 mg/kg; GNE3500, 5 mg/kg. (in a formulation of 15% Cremophor EL, Calbiochem, 82.5% PBS, and 2.5% DMSO) for five times per week. Tumor growth was monitored by calipers with volume calculated using the equation: π/6 (length×width^2). Mouse body weight during the course of the study was also monitored. At the end of the studies, mice were killed and tumors were dissected and weighed.

[6] = tested on: 22Rv1 cells; test: Cell survival: colony formation and apoptosis (caspase-3/7, TUNEL); assay type: cell-based, human
Experimental: (§2) Data shown are mean percentage of apoptotic cells±s.d. […] Data shown are mean±s.d. Significance was calculated using Student's t-test. *p<0.05, **p<0.01.
(§3) (a&b) C4-2B and 22Rv1 cell proliferation after the RORγ antagonist treatment. Cells were seeded in 6-well plates and counted after cells were treated with indicated concentrations of RORγ antagonists for 0, 2, 4 and 6 days by Coulter counter. […] (e) representative images of TUNEL positive cells treated with vehicle or the antagonist (5 μM) in 22Rv1 cells are shown. […] Three days later, cells were harvested for immunoblotting with indicated antibodies.
(§4) LNCaP, C4-2B, 22Rv, PC-3, and PC346C prostate cancer cells were cultured in RPMI1640, VCaP, HEK293T and human fibroblast IMR90 cells were in DMEM, LAPC-4 was in Iscove's MEM (all from Corning), and RWPE-1 and PZ-HPV-7 were in Keratinocyte Serum Free Medium (K-SFM) (Invitrogen) with the supplements. All the culture media except for RWPE-1 and PZ-HPV-7 were supplemented with 10% FBS (Hyclone) except indicated otherwise. For experiments, C4-2B cells were cultured in RPMI supplemented with 9% cds-FBS plus 1% regular FBS (to mimic the CRPC condition) unless indicated otherwise and 22Rv1 cells were cultured in RPMI supplemented with 10% cds-FBS. Cells were grown at 37° C. in 5% CO2 incubators. LNCaP, VCaP, 22Rv1, PC-3, 293T, IMR90, PZ-HPV-7 and RWPE-1 were from ATCC. […]

[7] = tested on: C4-2B cells; test: as above; assay type: cell-based, human
Experimental: as §2, §3, §4

Q: How did the “inhibition of growth and survival” value [1] turn out when `O=C(Cc1ccccc1[N+](=O)[O-])Nc1ccc(-c2ccc(C(O)(C(F)(F)F)C(F)(F)F)cc2F)cc1` [XY018, N-(2′-fluoro-4′-(1,1,1,3,3,3-hexafluoro-2-hydroxypropan-2-yl)-[1,1′-biphenyl]-4-yl)-2-(2-nitrophenyl)acetamide] was run?
A: strongly inhibited the growth and survival

Q: What about the “effect on endogenous AR expression in non-malignant cells” value [2] of the same compound?
A: did not have any significant effect

Q: What about the EC50 [3] of the same compound?
A: 0.19 µM

Q: What about the “inhibition of growth and survival” value [4] of the same compound?
A: strongly inhibited the growth and survival

Q: And the “orthotopic tumor growth inhibition” value [5]?
A: effectively inhibited the orthotopic TNBC tumor growth

Q: And the “inhibition of cell survival (colony formation, apoptosis)” value [6]?
A: pronounced inhibition of cell survival

Q: What about the “inhibition of cell survival (colony formation, apoptosis)” value [7] of the same compound?
A: pronounced inhibition of cell survival

— patent US20210161837A1, “METHODS FOR TREATING CANCER WITH RORGAMMA INHIBITORS” (The Regents of the University of California, priority 2016, published 2021)
